“And” between values parts separate entries of the source, which are not always exact repeats. Equal values may be shown once. Read-outs that look alike come from different tables or passages of the source.
What was measured:
K28H/Q32H GB1 = target: T1, K28H/Q32H GB1 (Streptococcus sp. group G, UniProt P06654, K254H/Q258H); assay: Isothermal titration calorimetry (ITC) at 298 K, single-site binding model
T1 construct: made in house
Experimental: seconds between injections, at 298 K. All solutions were degassed before the use and the final samples were centrifuged immediately before measurements. For the ZnII-NTA measurements, K28H/Q32H GB1 concentration was 800 μΜ, and titrant concentration was 12 mM. For the variable pH measurements, K28H/Q32H GB1 concentration was 75 μM and titrant concentration was 2.5 mM. Blank conditions of either buffer A (42.4 mM Na2HPO4, 7.6 mM KH2PO4, 150 mM NaCl, pH 7.4) titrated against addition of 12 mM titrant, or pH adjusted buffer A titrated against addition of 1.0 or 2.0 mM titrant, were recorded for the competitor and variable pH ITC measurements, respectively.
Subtraction of the blank measurements from the raw data mitigated the heat of dilution. All data analyses were performed in MicroCal Origin 7 (OriginLab, Northampton, MA) and thermodynamic parameters were derived using standard Marquardt fitting of a single-site binding model, as in our previous work.1 The fitted equation is given as:
Where: 3($) is the heat content of the solution at the point of the <th injection, is the binding constant, 4 is the stoichiometry of binding, =7 is the molar heat of ligand binding, 8 is the active cell volume, 56 is the total concentration of macromolecule contained in 8 , :6 is the total concentration of ligand contained in 8 .
1.8 UV-visible Spectroscopy:
All UV-visible absorbance spectra were recorded using a Jenway 67 series UV-vis spectrophotometer, in plastic cuvettes with a path length of 10 mm, in single-beam mode. All spectra are recorded at ambient temperature, and with a wavelength resolution of 1 nm, in the wavelength range 320-800 nm. Each sample was blanked before measurement, and all were repeated in triplicate. Data was processed using the Jenway 67-series software suite, and were exported to ASCII format for plotting and analysis in Matlab. For quantitation of CuII-IDA and CuII-NTA concentration, molar extinction coefficients of 62 M-1 cm-1 and 59 M-1cm-1 at 726 nm, and 800 nm were used, respectively, taken from previous literature.1,11

I6R1/K28H/Q32H GB1 [1] = target: T2, I6R1/K28H/Q32H GB1 (Streptococcus sp. group G, UniProt P06654, I232C/K254H/Q258H); assay: Cu^II-nitroxide RIDME pseudotitration (pulse dipolar EPR); type: binding; conditions: for Kd: read-out: fitted dissociation constant (bivariate fit)
T2 construct: MTSL nitroxide spin label on Cys6 (R1 side chain); made in house
Text: (§1) I Experimental Procedures:
(§2) 1.1 Construct Design, Expression and Purification:
(§3) Constructs of Streptococcus sp. group G, protein G B1 domain (GB1) were designed, expressed and purified as previously described.1,2 For completeness the protein sequences for the K28H/Q32H and I6C/K28H/Q32H GB1 constructs are given below in figures S1 and S2, respectively. The positions of the cysteine and double-histidine motif are indicated in cyan and green, respectively.
(§4) K28H/Q32H GB1 Protein Sequence:
(§5) Figure S1. Full amino-acid sequence for the K28H/Q32H GB1 construct used in this work, with each histidine residue of the double-histidine motif shown in green; and residue number indicated above the sequence.
(§6) I6C/K28H/Q32H GB1 Protein Sequence:
Figure S2. Full amino-acid sequence for the I6C/K28H/Q32H GB1 construct used in this work, with the cysteine residue shown in cyan and each histidine residue of the double-histidine motif shown in green; and residue numbers indicated […]
1.2 Pulse EPR Sample Preparation:
All material was exchanged into pH-adjusted deuterated buffer A (42.4 mM Na2HPO4, 7.6 mM KH2PO4, 150 mM NaCl) by first freeze-drying and then re-dissolving in D2O. For Q-band RIDME samples of 6R1/28H/32H GB1, a total volume of 70 μL was used, with protein concentrations of 1, 2, or 5 μM as stated. All EPR samples were frozen by direct immersion into liquid nitrogen. ZnII-NTA and CuII-NTA stock solutions were prepared as previously described1,3; and for labelling, ZnII-NTA and CuII-NTA stock solutions with nominal concentrations of 100 and 10 mM were used, […]
1.3 Metal Chelate Spin Label Preparation:
For preparation of all metal-NTA labels: CuII-NTA, and ZnII-NTA, , ZnCl2, CuCl2 and NTA were weighed in a glove-box and aliquoted into 1.5 mL reaction tubes. Stock solutions of 100 mM were prepared as previously described.3 Complete dissolution was ensured by vortexing until solutions were clear […]
of precipitate. […]
1.5 Pulse EPR Measurements:
All pulse EPR experiments were performed using a Bruker ELEXSYS 580 pulse EPR spectrometer.
Temperatures were maintained using a cryogen-free variable temperature cryostat (Cryogenic Ltd) operating in the 1.8-300 K temperature range. All measurements of the electron spin longitudinal relaxation times (T1) of CuII-NTA, and all 5-pulse dead-time free RIDME measurements4 were performed at 30 K, using a high-power 150 W travelling-wave tube (TWT; Applied Systems […]
an SRT of 2 ms, with 2560 points, 25 shots-per-point, and 1-5 scans, as stated. A τ of 800 ns was used, with an approximate time-window length of […], incremented in steps of 200 ns.
1.6 Competitive Binding Model:
Let us begin by considering a binding equilibrium in presence of a competitor ligand (A), with the following two approximations: i) the binding of the ligand (L) and (A) to a protein (P) is mutually exclusive, and ii) the competitor (A) binds to (P) weakly with respect to (L). Here we can define a dissociation constant for both the ligand (KDL) and for the competitor (KDA), given in (S1) and (S2) […]
Rearranging (S1) and (S2) for equilibrium concentrations of protein and protein-competitor complex, given as [P] and [PA] respectively, yields (S3) and (S4):
Here, an expression for total protein, [P]0, can be defined:
Substitution of (S3) and (S4) into (S5) yields (S6):
Symbolic substitution and rearrangement of (S6) to solve for [PL] yields (S7): […]

I6R1/K28H/Q32H GB1 [2] = target: T2, I6R1/K28H/Q32H GB1; assay: Zn^II–NTA competitor RIDME pseudotitration (competition assay in presence of Cu^II–NTA); type: binding; conditions: low μM protein concentration
Experimental: The corresponding RIDME pseudotitration was performed at 1 μM protein concentration in the presence of 10 μM Cu^II– NTA (to ensure quantitative loading at the double histidine motif prior to addition of competitor ligand (see SI section 1.6)) and varying Zn^II–NTA concentrations. […] Additionally, this benchmarks quantitation of Cu^II-nitroxide RIDME modulation depths for remotely determining binding affinities of EPR silent ligands, in a competition assay format.
as §1, §2, §3, §4, §5, §6
Figure S2. […]

6R1/28H/32H GB1 = target: 6R1/28H/32H GB1; parameters: method as in earlier work; conditions: pH 7.4; 75 μM protein, 2 mM CuII-NTA; cited from earlier work
I6R1/K28H/Q32H GB1 [3] = target: T2, I6R1/K28H/Q32H GB1; conditions: pH 7.4; previous work; read-out: fitted dissociation constant; cited from earlier work
[4] = pH 6.4, 298 K, listed as CuII-NTA

## O=C([O-])CN(CC(=O)[O-])CC(=O)[O-].[Cu+2] [Cu^II–NTA, Cu^II-nitrilotriacetic acid]
K28H/Q32H GB1; pH 5.0, 298 K, 75 μM protein, 2 mM Cu^II–NTA
  binding at the double-histidine motif: negligible binding
K28H/Q32H GB1; pH 6.4
  Wiseman factor: 0.76
K28H/Q32H GB1; pH 6.4, 298 K
  n (stoichiometry of binding): ~ 1
  ΔH: -6.9 kcal/mol
K28H/Q32H GB1; [4]
  n (stoichiometry of binding): 0.97
  ΔH: -6.94 kcal/mol
K28H/Q32H GB1; pH 6.4, 298 K, read-out: KD
  Kd: 98.6 µM
K28H/Q32H GB1; pH 6.4, ΔH extrapolated to 235 K, listed as CuII-NTA, read-out: Predicted KD at 235 K
  Kd: 4.26 µM
K28H/Q32H GB1; pH 6.4, ΔH extrapolated to 235 K, read-out: Predicted KD at 235 K
  Kd: ~4 µM
K28H/Q32H GB1; pH 8.4
  Wiseman factor: 9.42
K28H/Q32H GB1; pH 8.4, 298 K
  n (stoichiometry of binding): ~ 2
  ΔH: -15.2 kcal/mol
K28H/Q32H GB1; pH 8.4, 298 K, listed as CuII-NTA
  n (stoichiometry of binding): 2.04
K28H/Q32H GB1; pH 8.4, 298 K, listed as CuII-NTA, read-out: KD
  Kd: 7.96 µM
K28H/Q32H GB1; pH 8.4, 298 K, read-out: KD
  Kd: 8 µM
K28H/Q32H GB1; pH 8.4, predicted from room-temperature ITC
  predicted increase in affinity compared to previous work: 20 fold
K28H/Q32H GB1; pH 9.0
  Wiseman factor: 3.00
K28H/Q32H GB1; pH 9.0, 298 K
  ΔH: -2.92 kcal/mol
K28H/Q32H GB1; pH 9.0, 298 K, 1 mM CuII-NTA
  n (stoichiometry of binding): 0.94
K28H/Q32H GB1; pH 9.0, 298 K, read-out: KD
  Kd: 25 µM
K28H/Q32H GB1; pH 9.0, read-out: Predicted KD at 235 K
  Kd: 6.67 µM
I6R1/K28H/Q32H GB1 [1]; pH 6.4
  affinity reduction compared to pH 7.4: 2 fold
I6R1/K28H/Q32H GB1 [1]; pH 6.4, 5 μM protein, 1 equiv of Cu^II–NTA
  available double-histidine motifs saturated: ~70%
I6R1/K28H/Q32H GB1 [1]; pH 6.4, 5 μM protein
  Kd: 0.31 µM and 0.308 µM
I6R1/K28H/Q32H GB1 [1]; pH 8.4
  binding affinity higher than at pH 7.4: approximately 2 fold
I6R1/K28H/Q32H GB1 [1]; pH 8.4, 2 μM protein
  Kd: 0.091 µM
I6R1/K28H/Q32H GB1 [2]
  robust against Zn^II–NTA competitor ligand in molar excess: > 1000 fold
6R1/28H/32H GB1
  Kd: 5 µM
I6R1/K28H/Q32H GB1 [3]
  Kd: 0.14 µM

— PMC8006131, “Pulse Dipolar EPR Reveals Double-Histidine Motif Cu^II−NTA Spin-Labeling Robustness against Competitor Ions” (The journal of physical chemistry letters, 2021)
